Test results published in the NIST ThermoML archive (doi:10.1021/je8001442).
Numbers after ± are expanded uncertainties.

Assay: excess molar enthalpy (molar enthalpy of mixing); xn = mol fraction of the nth substance listed
Conditions: Fluid (supercritical or subcritical phases), Flow calorimetry

CC(C)OC(C)C [diisopropyl ether] + O=C=O
Conditions | excess molar enthalpy [kcal/mol]
303.15 K, 6000 kPa, x2 = 0.837 | -1.66 ± 0.0359
303.15 K, 6000 kPa, x2 = 0.8658 | -1.7 ± 0.0359
303.15 K, 6000 kPa, x2 = 0.8924 | -1.71 ± 0.0359
308.15 K, 5000 kPa, x2 = 0.1255 | -0.293 ± 0.00621
308.15 K, 5000 kPa, x2 = 0.2326 | -0.53 ± 0.0112
308.15 K, 5000 kPa, x2 = 0.3249 | -0.745 ± 0.0158
308.15 K, 5000 kPa, x2 = 0.4054 | -0.924 ± 0.0196
308.15 K, 5000 kPa, x2 = 0.4762 | -1.09 ± 0.0232
308.15 K, 5000 kPa, x2 = 0.5389 | -1.22 ± 0.0263
308.15 K, 5000 kPa, x2 = 0.5949 | -1.34 ± 0.0287
308.15 K, 5000 kPa, x2 = 0.6452 | -1.45 ± 0.0311
308.15 K, 5000 kPa, x2 = 0.6906 | -1.55 ± 0.0335
308.15 K, 5500 kPa, x2 = 0.1263 | -0.275 ± 0.00598
308.15 K, 5500 kPa, x2 = 0.2338 | -0.525 ± 0.0112
308.15 K, 5500 kPa, x2 = 0.3265 | -0.709 ± 0.0151
308.15 K, 5500 kPa, x2 = 0.4071 | -0.891 ± 0.0189
308.15 K, 5500 kPa, x2 = 0.478 | -1.04 ± 0.0222
308.15 K, 5500 kPa, x2 = 0.5407 | -1.18 ± 0.0239
308.15 K, 5500 kPa, x2 = 0.5966 | -1.29 ± 0.0287
308.15 K, 5500 kPa, x2 = 0.6468 | -1.4 ± 0.0287
308.15 K, 5500 kPa, x2 = 0.6921 | -1.49 ± 0.0311
308.15 K, 5500 kPa, x2 = 0.7331 | -1.57 ± 0.0335
308.15 K, 6000 kPa, x2 = 0.127 | -0.277 ± 0.00598
308.15 K, 6000 kPa, x2 = 0.235 | -0.494 ± 0.0105
308.15 K, 6000 kPa, x2 = 0.3279 | -0.693 ± 0.0148
308.15 K, 6000 kPa, x2 = 0.4087 | -0.853 ± 0.0182
308.15 K, 6000 kPa, x2 = 0.4796 | -1.02 ± 0.0217
308.15 K, 6000 kPa, x2 = 0.5423 | -1.12 ± 0.0239
308.15 K, 6000 kPa, x2 = 0.5982 | -1.22 ± 0.0263
308.15 K, 6000 kPa, x2 = 0.6483 | -1.34 ± 0.0287
308.15 K, 6000 kPa, x2 = 0.6934 | -1.42 ± 0.0311
308.15 K, 6000 kPa, x2 = 0.7344 | -1.49 ± 0.0311
308.15 K, 6000 kPa, x2 = 0.7716 | -1.56 ± 0.0335
308.15 K, 6000 kPa, x2 = 0.8057 | -1.61 ± 0.0335
308.15 K, 6000 kPa, x2 = 0.8248 | -1.64 ± 0.0359
308.15 K, 6500 kPa, x2 = 0.1277 | -0.254 ± 0.0055
308.15 K, 6500 kPa, x2 = 0.2361 | -0.464 ± 0.0098
308.15 K, 6500 kPa, x2 = 0.3292 | -0.638 ± 0.0136
308.15 K, 6500 kPa, x2 = 0.4101 | -0.787 ± 0.0167
308.15 K, 6500 kPa, x2 = 0.4811 | -0.92 ± 0.0196
308.15 K, 6500 kPa, x2 = 0.5438 | -1.04 ± 0.022
308.15 K, 6500 kPa, x2 = 0.5996 | -1.14 ± 0.0239
308.15 K, 6500 kPa, x2 = 0.6496 | -1.24 ± 0.0263
308.15 K, 6500 kPa, x2 = 0.6947 | -1.33 ± 0.0287
308.15 K, 6500 kPa, x2 = 0.7355 | -1.39 ± 0.0287
308.15 K, 6500 kPa, x2 = 0.7727 | -1.45 ± 0.0311
308.15 K, 6500 kPa, x2 = 0.8066 | -1.5 ± 0.0311
308.15 K, 6500 kPa, x2 = 0.8378 | -1.56 ± 0.0335
308.15 K, 6500 kPa, x2 = 0.8665 | -1.6 ± 0.0335
308.15 K, 7000 kPa, x2 = 0.1283 | -0.232 ± 0.00502
308.15 K, 7000 kPa, x2 = 0.237 | -0.421 ± 0.00908
308.15 K, 7000 kPa, x2 = 0.3304 | -0.587 ± 0.0124
308.15 K, 7000 kPa, x2 = 0.4114 | -0.728 ± 0.0155
308.15 K, 7000 kPa, x2 = 0.4824 | -0.857 ± 0.0182
308.15 K, 7000 kPa, x2 = 0.5451 | -0.95 ± 0.0203
308.15 K, 7000 kPa, x2 = 0.6009 | -1.05 ± 0.0225
308.15 K, 7000 kPa, x2 = 0.6509 | -1.13 ± 0.0239
308.15 K, 7000 kPa, x2 = 0.6958 | -1.21 ± 0.0263
308.15 K, 7000 kPa, x2 = 0.7366 | -1.26 ± 0.0263
308.15 K, 7000 kPa, x2 = 0.7736 | -1.33 ± 0.0287
308.15 K, 7000 kPa, x2 = 0.8075 | -1.38 ± 0.0287
308.15 K, 7000 kPa, x2 = 0.8385 | -1.42 ± 0.0311
308.15 K, 7000 kPa, x2 = 0.8671 | -1.44 ± 0.0311
308.15 K, 7000 kPa, x2 = 0.8935 | -1.46 ± 0.0311
308.15 K, 7000 kPa, x2 = 0.9179 | -1.47 ± 0.0311
308.15 K, 7500 kPa, x2 = 0.1289 | -0.2 ± 0.0043
308.15 K, 7500 kPa, x2 = 0.238 | -0.356 ± 0.00765
308.15 K, 7500 kPa, x2 = 0.3315 | -0.488 ± 0.0105
308.15 K, 7500 kPa, x2 = 0.4127 | -0.625 ± 0.0134
308.15 K, 7500 kPa, x2 = 0.4837 | -0.727 ± 0.0155
308.15 K, 7500 kPa, x2 = 0.5464 | -0.819 ± 0.0174
308.15 K, 7500 kPa, x2 = 0.6021 | -0.904 ± 0.0191
308.15 K, 7500 kPa, x2 = 0.652 | -0.973 ± 0.0208
308.15 K, 7500 kPa, x2 = 0.6969 | -1.04 ± 0.0222
308.15 K, 7500 kPa, x2 = 0.7376 | -1.1 ± 0.0234
308.15 K, 7500 kPa, x2 = 0.7745 | -1.15 ± 0.0239
308.15 K, 7500 kPa, x2 = 0.8083 | -1.19 ± 0.0263
308.15 K, 7500 kPa, x2 = 0.8392 | -1.24 ± 0.0263
308.15 K, 7500 kPa, x2 = 0.8677 | -1.25 ± 0.0263
308.15 K, 7500 kPa, x2 = 0.894 | -1.28 ± 0.0263
308.15 K, 7500 kPa, x2 = 0.9183 | -1.26 ± 0.0263
308.15 K, 7500 kPa, x2 = 0.9409 | -1.24 ± 0.0263
308.15 K, 7500 kPa, x2 = 0.962 | -1.17 ± 0.0239
